Source: publication PMC8717366, “Synthesis and Pharmacological Characterization of Visabron, a Backbone Cyclic Peptide Dual Antagonist of α4β1 (VLA-4)/α9β1 Integrin for Therapy of Multiple Sclerosis” (JACS Au, 2021)
Numbered stars: 1 amine (or outer) side, 2 acyl side, 3 side chain; on linkers, the order of the positions; unused ones are H or OH. Bridge positions count the residues as written; N and C are the ends. Square brackets hold non-standard residues; d marks the D form. Peptide text beside a SMILES is read from it. N(2-Aminoethyl)Gly = O=C(CN(CCN[*:3])[*:1])[*:2]; CO = O=C([*:1])[*:2]; Nlys = NCCCCNCC(=O)O

How the values were obtained:
C-Raf = target: T1, C-Raf (Homo sapiens, UniProt P04049, Y340D/Y341D); test: PhosphoSens CSox-based kinase assay, C-Raf; type: biochemical; settings: 1 mM, but not 0.1 mM; Figure 7
T1 construct: purchased Thermo PV3805
T1 sequence (P04049 whole entry Y340D/Y341D): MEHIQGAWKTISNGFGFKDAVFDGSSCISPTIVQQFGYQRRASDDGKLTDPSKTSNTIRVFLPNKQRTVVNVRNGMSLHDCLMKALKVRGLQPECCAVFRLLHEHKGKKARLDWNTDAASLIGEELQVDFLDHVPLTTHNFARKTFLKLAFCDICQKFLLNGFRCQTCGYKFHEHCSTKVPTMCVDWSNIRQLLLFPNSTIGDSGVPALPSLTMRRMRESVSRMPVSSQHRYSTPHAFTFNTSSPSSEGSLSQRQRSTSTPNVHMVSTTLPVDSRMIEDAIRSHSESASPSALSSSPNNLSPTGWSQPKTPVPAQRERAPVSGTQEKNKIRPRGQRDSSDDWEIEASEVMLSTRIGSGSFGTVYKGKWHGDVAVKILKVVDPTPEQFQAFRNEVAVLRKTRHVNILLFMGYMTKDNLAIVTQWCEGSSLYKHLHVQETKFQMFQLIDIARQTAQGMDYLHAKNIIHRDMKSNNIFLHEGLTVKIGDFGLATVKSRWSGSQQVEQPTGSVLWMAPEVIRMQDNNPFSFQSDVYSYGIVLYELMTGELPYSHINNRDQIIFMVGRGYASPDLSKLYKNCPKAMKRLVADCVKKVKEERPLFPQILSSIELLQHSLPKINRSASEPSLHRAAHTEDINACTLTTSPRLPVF
Protocol: Kinase activity was measured using the PhosphoSenstechnology (AssayQuant Technologies Inc., Marlborough, MA) as detailed in the Supporting Information. […]
Visabron c (4-4) safety by in vitro evaluation using PhosphoSens - CSox based kinase assays:
A powerful method was used to measure the activity of recombinant protein kinases using a homogeneous and continuous (kinetic) format, where the level of chelation-enhanced fluorescence (CHEF) that is directly proportional to the amount of phosphorylated, real-time sensors consisting of sulfonamido-oxine (Sox) chromophore, linked to a peptide or protein substrates of selective kinases 6. […]
Kinase activity measurements: Kinase activity was measured continuously using the PhosphoSens® technology (AssayQuant Technologies Inc., Marlborough, MA) according to the manufacturers’ recommendations. This one-step homogeneous assay format uses chelation -enhanced fluorescence via optimized substrate sensors containing the unnatural fluorogenic amino -acid Sox. […]
Final reaction conditions : Protein kinase activity was determined in 54 mM HEPES, pH 7.5, 1 mM ATP, 1.2 mM DTT, 0.012% Brij-35, 0.52 mM EGTA, 10 mM MgCl2, 1% glycerol, 0.2mg/ml BSA, and 15 μM Sox -based sensor. […]

[1] = test system: experimental autoimmune encephalomyelitis (EAE); test: MOG-induced EAE in C57BL/6 mice; type: in vivo, C57Bl/6 female mice
Protocol: EAE was induced in C57bl/6 mice by immunization with MOG/CFA and injection of pertussis toxin as described in the Experimental Section. The body weight, neurological scores, and disease incidence were monitored daily for 35 days. Immunized mice (n = 10–14 in each group) were treated (i.p. injection) at time points indicated by arrows. Histology was performed on day 35 on all groups. Data shown are the mean ± SEM, evaluated by the nonparametric Kruskal–Wallis test followed by a Dunn’s postanalysis. All p-values <0.05 were considered statistically significant. (A) Neurological clinical score. Visabron c (4–4) (green) at a cumulative dose of 25 mg/kg (5 mg/kg every other day, for 8 days) and natalizumab (orange) at a cumulative dose of 120 mg/kg (24 mg/kg every other day, for 8 days). […] (E) Dose–response of treatment with visabron c (4–4). Inset: Mean neurological score of the different treatment groups at disease onset (days 15–17). […] (F) Inflammatory infiltrates (blue) in the spinal cord were evaluated by cell counting in H&E stained slices.
C57Bl/6 female mice, 8 weeks old, obtained from the Harlan animal breeding center were used in the study and were maintained in the SPF unit of the Faculty of Medicine. EAE was induced by s.c. injection of 0.2 mL/mouse emulsion containing 200 μg of MOG35–55 peptide in saline and an equal volume of 5 mg/mL Complete Freund’s Adjuvant (CFA) containing 1 mg/mL heat-killed M. tuberculosis (H37Ra; Difco Laboratories, Detroit, MI) . The emulsification was made from equal parts of oil and liquid portions (1:1) in two syringes connected to each other with Leur lock, transferred to an insulin syringe, and 0.2 mL was injected to the right flank of each mouse. On the day of immunization, pertussis toxin (200 ng/mL) was injected i.p. at a volume dose of 0.2 mL/mouse. The injection of the pertussis toxin (i.p) was repeated after 48 h to boost the immune recognition reaction. From day four, natalizumab and Visabron c (4–4) were injected i.p. each other day, five times, and the weight, the neurological score and the disease incidence of the mice were monitored until 35 days after immunization. EAE scoring system: mice were observed daily for the appearance of neurological symptoms, which were scored as follows: 0, asymptomatic; 1, partial loss of tail tonicity; 1.5, limp tail; 2, hind limb weakness (right reflex); 3, ataxia; 4, early paralysis; 5, full paralysis; and 6, moribund or dead. The disease incidence was calculated as a percentage of the ratio of the number of new diseased mice per number of living mice at each time-point. In experiments to estimate cell infiltration in the spinal cord at 35 days postimmunization, the mice were euthanized by cervical dislocation and lumbar spinal cords were collected.

[2] = Immunogenicity, antibody titer by ELISA in BALB/c mice; type: in vivo, BALB/c male mice; settings: 40 days, Figure 8
Protocol: Figure 8 Antibody titer test in BALB/c mice, 40 days post intraperitoneal administration with natalizumab (18 mg/kg), visabron c (2–2) (150 mg/kg) alone, and administered together with Complete Freund’s Adjuvant (visabron c (2–2) + CFA), as compared to preimmune control serum. The results represent the mean ± SEM (n = 6) of optical absorbance (OD 490 nm) in ELISA. *p ≤ 0.01 compared to control.
BALB/c male mice, aged 60 days (22 gr) were divided into three groups each containing six mice. The mice were immunized intraperitoneal with 0.5 mL of Visabron c (2–2) (150 mg/kg), 0.25 mL Visabron c (2–2) (150 mg/kg) + 0.25 mL of Freund‘s complete adjuvant, and 0.25 mL natalizumab (18 mg/kg). After 14 days of the first inoculation, the mice received a booster with 0.5 mL of the preparations mentioned above. To verify the presence of antibodies against visabron c (2–2) or natalizumab, the serum collected from mice tail blood was tested 40 days after the first inoculation by indirect ELISA using visabron c (2–2) or natalizumab antigens immobilized to the plate (25 μg per well, diluted in 20 mM carbonate buffer, pH 9.6 overnight incubated at 4 °C). […] The reaction was stopped with 12.5% H2SO4, and absorbance was measured at 490 nm. The results were considered significant when the absorbance was at least two times higher than that obtained with the preimmune serum.

## CSCC[C@@H]1NC(=O)[C@H]([C@@H](C)O)NC(=O)CN(C(=O)[C@@H](N)CCCCN)CCCCNC(=O)NCCCCN(CC(=O)N[C@@H](CC(C)C)C(N)=O)C(=O)[C@H](CC(=O)O)NC(=O)[C@H](CC(C)C)NC1=O [visabron c (4–4)] (H-K[Nlys]TMLD[Nlys]L-NH2; linker 2-7 via CO)
C-Raf
  inhibition at 1000 µM: 25 to 40%

## natalizumab: clinical-grade monoclonal antibody anti-α4β1 produced by Biogen Co. [reference compound]
[1]; 13–16 to 35 days postimmunization, visabron c (4–4) cumulative 25 mg/kg, natalizumab 120 mg/kg i.p., Figure 3B
  EAE-associated body weight decrease: significantly decreased
[1]; Figure 3C
  Disease incidence vs EAE disease group: lower disease incidence
[1]; at 35 days postimmunization, Figure 3D
  Cumulative neurological scores vs EAE/PBS group: significantly decreased
[1]; day 35, Figure 3F
  Inflammatory cell infiltration in spinal cord (H&E cell counting): significantly reduced
[1]; onset (13–16 days) to 35 days postimmunization, i.p., visabron c (4–4) cumulative 25 mg/kg, natalizumab cumulative 120 mg/kg, Figure 3A
  Increase in neurological score vs EAE group: significantly lower

## CSCC[C@@H]1NC(=O)[C@H]([C@@H](C)O)NC(=O)CN(C(=O)[C@@H](N)CCCCN)CCNC(=O)NCCN(CC(=O)N[C@@H](CC(C)C)C(N)=O)C(=O)[C@H](CC(=O)O)NC(=O)[C@H](CC(C)C)NC1=O [visabron c (2–2)] (H-K[N(2-Aminoethyl)Gly]TMLD[N(2-Aminoethyl)Gly]L-NH2; linker 2-7 via CO)
[2]; 150 mg/kg intraperitoneal alone
  Antibody production (ELISA vs preimmune serum): did not induce antibody production
[2]; 150 mg/kg intraperitoneal together with Freund's complete adjuvant
  Antibody production (ELISA vs preimmune serum): did not induce antibody production
